Experiment: Solubility of caffeine in caffeine-containing compositions containing various helper esters
Conditions: compared with caffeine in pure water; Tables 1-9

## CC(C)OC(=O)[C@@H](N)Cc1c[nH]c2ccccc12 [tryptophan isopropyl ester]
  solubility of caffeine in water with helper ester (statement in words): increased

Reference: patent US9211249B2, “Methods and compositions for transdermal delivery of caffeine in the form of solutions or suspensions” (priority 2013, dated 2015)
